The text below walks through data of paper PMC2248166, “Quantitative peptide binding motifs for 19 human and mouse MHC class I molecules derived using positional scanning combinatorial peptide libraries” (Immunome Research, 2008).

Chain of H-2 D^b (P01887 21-119): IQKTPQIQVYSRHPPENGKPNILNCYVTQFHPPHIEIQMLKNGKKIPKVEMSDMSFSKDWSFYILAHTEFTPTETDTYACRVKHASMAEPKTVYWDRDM
Chain of H-2 D^b (P01899 25-362): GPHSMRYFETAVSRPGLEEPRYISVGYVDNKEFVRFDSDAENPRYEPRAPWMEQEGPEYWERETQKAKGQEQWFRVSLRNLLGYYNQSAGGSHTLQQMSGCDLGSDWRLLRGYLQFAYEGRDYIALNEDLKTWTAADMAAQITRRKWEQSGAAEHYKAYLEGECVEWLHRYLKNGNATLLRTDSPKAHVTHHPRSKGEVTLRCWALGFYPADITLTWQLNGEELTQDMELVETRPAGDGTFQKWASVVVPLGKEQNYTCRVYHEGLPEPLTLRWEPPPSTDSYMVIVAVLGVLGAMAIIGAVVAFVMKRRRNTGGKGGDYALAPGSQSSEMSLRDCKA
Chain of H-2 K^k (P01887 21-119): as the sequence (P01887 21-119) above
Chain of H-2 K^k (P04223 22-369): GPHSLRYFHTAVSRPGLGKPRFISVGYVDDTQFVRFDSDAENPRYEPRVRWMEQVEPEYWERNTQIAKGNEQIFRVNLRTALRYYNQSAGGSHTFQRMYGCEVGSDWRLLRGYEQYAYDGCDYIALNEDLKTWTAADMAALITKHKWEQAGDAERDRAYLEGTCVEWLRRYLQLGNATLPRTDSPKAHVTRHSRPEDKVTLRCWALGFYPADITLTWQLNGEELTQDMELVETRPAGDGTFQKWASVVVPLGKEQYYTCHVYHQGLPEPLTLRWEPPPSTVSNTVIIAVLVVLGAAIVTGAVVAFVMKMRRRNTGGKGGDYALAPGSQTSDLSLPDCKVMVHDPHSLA

In one test the target is HLA A*6802 (Homo sapiens, UniProt P04439, A269V/D140Y/D185E/E176V/E277Q/E87N/F33Y/G231S/I121R/I166T/I218V/L180W/L300P/L318F/N151K/P208A/P217A/Q86R/R138H/R169H/S129P/T345S/V36M).
Experiment: not given
Type of test: binding.
Details: not given
On to XVXXXXXXX [3064.0038], for which the “Normalized average relative binding affinity (ARB), HLA A*6802” value was found to be 1.0.

With XWXXXXXXX [3064.0039], the “Normalized average relative binding affinity (ARB), HLA A*6802” value was 0.022.

Take XXAXXXXXX [3064.0041]: the “Normalized average relative binding affinity (ARB), HLA A*6802” value is 0.0051.

A further test addresses HLA A*3201 (Homo sapiens, UniProt P04439, A270S/D101S/D185E/E176V/E277Q/F133L/G103R/G107R/G231S/H175R/I121M/I218V/I322F/K168Q/L105A/L300P/L318F/M331R/P208A/P217A/Q94H/R106L/R138Q/S129P/T104I/T323A/T345S/V100E/V321M/V358M). As to the kind of experiment: biochemical. The format is binding.
Details: not given
On to XVXXXXXXX [3064.0038], for which the “Normalized average relative binding affinity (ARB), HLA A*3201” value amounted to 0.23.

XWXXXXXXX [3064.0039]: the “Normalized average relative binding affinity (ARB), HLA A*3201” value is on record as 0.034.

XXAXXXXXX [3064.0041]: the “Normalized average relative binding affinity (ARB), HLA A*3201” value came to 0.24.

The target in the next test is HLA B*5401 (Homo sapiens, UniProt P01889, A329T/C349S/D138N/D201E/E176V/E187T/E204Q/E69G/I76V/K202T/L119W/R155S/R180L/S121T/S35A/S48A/V127L/V306I/V36M/Y140L).
Experiment: not given
The format is binding.
Details: not given
As for XVXXXXXXX [3064.0038], the “Normalized average relative binding affinity (ARB), HLA B*5401” value was determined as 0.024.

XWXXXXXXX [3064.0039]: the “Normalized average relative binding affinity (ARB), HLA B*5401” value was found to be 0.0040.

As to XXAXXXXXX [3064.0041], the “Normalized average relative binding affinity (ARB), HLA B*5401” value is reported as 0.00077.

The target in another test is HLA B*0801 (Homo sapiens, UniProt P01889, A93T/A95T/D138N/E176V/E187T/K202T/Q94N/R180D/S35A/V36M/Y33D/Y91F). The test is described as follows: biochemical. The format is binding.
Details: not given
As to XVXXXXXXX [3064.0038], the “Normalized average relative binding affinity (ARB), HLA B*0801” value stood at 0.17.

Regarding XWXXXXXXX [3064.0039], the “Normalized average relative binding affinity (ARB), HLA B*0801” value was 0.024.

Regarding XXAXXXXXX [3064.0041], the “Normalized average relative binding affinity (ARB), HLA B*0801” value is 0.12.

For another test, the target named is HLA B*0702 (Homo sapiens, UniProt P01889).
Experiment: not given
Type of test: binding. The following applies: positional scanning combinatorial 9-mer library; normalized to 1.0 for the best residue at each position.
In the case of XVXXXXXXX [3064.0038], the “Normalized average relative binding affinity (ARB), HLA B*0702” value is listed as 0.086.

As for XWXXXXXXX [3064.0039], the “Normalized average relative binding affinity (ARB), HLA B*0702” value is listed as 0.0052.

As for XXAXXXXXX [3064.0041], the “Normalized average relative binding affinity (ARB), HLA B*0702” value is recorded as 0.0097.

The target in a further test is HLA B*5802 (Homo sapiens, UniProt P01889, A329T/C349S/D201E/D98Y/E176V/E187L/E204Q/E69T/G107R/I218V/I90N/K202T/L105A/N104I/N87E/Q89R/Q94S/R106L/R155S/R180L/R86G/S101N/S121W/S35A/S48A/V127L/V306I/V36M/Y140S/Y91M).
Experiment: not given
The format is binding.
Details: not given
With XVXXXXXXX [3064.0038], the “Normalized average relative binding affinity (ARB), HLA B*5802” value was 0.12.

With XWXXXXXXX [3064.0039], the “Normalized average relative binding affinity (ARB), HLA B*5802” value worked out at 0.098.

With XXAXXXXXX [3064.0041], the “Normalized average relative binding affinity (ARB), HLA B*5802” value stood at 0.047.

The next test has as its target H-2 K^k (Mus musculus, UniProt P04223).
Experiment: not given
Type of test: binding.
Details: not given
In the case of XVXXXXXXX [3064.0038], the “Normalized average relative binding affinity (ARB), H-2 Kk” value is given as 0.0062.

Consider XWXXXXXXX [3064.0039], for which the “Normalized average relative binding affinity (ARB), H-2 Kk” value worked out at 0.0069.

As to XXAXXXXXX [3064.0041], the “Normalized average relative binding affinity (ARB), H-2 Kk” value was 0.0061.

A further test addresses HLA B*5101 (Homo sapiens, UniProt P01889, A329T/A93T/A95T/C349S/D138N/D201E/D98Y/E187L/E204Q/E69T/G107R/I218V/K202T/L105A/L119W/N104I/Q94N/R106L/R155S/R180L/S101N/S121T/S35A/S48A/V306I/V36M/Y195H/Y91F).
Experiment: not given
The format is binding.
Details: not given
Take XVXXXXXXX [3064.0038]: the “Normalized average relative binding affinity (ARB), HLA B*5101” value came to 0.10.

For the sequence XWXXXXXXX [3064.0039], the “Normalized average relative binding affinity (ARB), HLA B*5101” value came to 0.050.

Regarding XXAXXXXXX [3064.0041], the “Normalized average relative binding affinity (ARB), HLA B*5101” value amounted to 0.47.

For the next test, the target named is H-2 D^d (Mus musculus, UniProt P01900).
Chain of H-2 D^d (P01900 whole entry, looked up): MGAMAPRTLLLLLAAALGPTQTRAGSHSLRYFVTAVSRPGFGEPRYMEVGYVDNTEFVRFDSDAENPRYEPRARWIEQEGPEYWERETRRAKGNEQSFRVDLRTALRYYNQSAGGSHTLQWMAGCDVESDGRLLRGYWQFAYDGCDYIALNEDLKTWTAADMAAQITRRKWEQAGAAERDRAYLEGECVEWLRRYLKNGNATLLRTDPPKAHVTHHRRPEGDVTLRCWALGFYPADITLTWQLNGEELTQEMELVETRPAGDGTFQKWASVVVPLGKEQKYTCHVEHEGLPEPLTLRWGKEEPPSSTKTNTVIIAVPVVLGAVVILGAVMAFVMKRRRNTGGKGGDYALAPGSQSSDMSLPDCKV
Experiment: not given
The format is binding.
Details: not given
Regarding XVXXXXXXX [3064.0038], the “Normalized average relative binding affinity (ARB), H-2 Dd” value came out at 0.016.

As to XWXXXXXXX [3064.0039], the “Normalized average relative binding affinity (ARB), H-2 Dd” value turned out to be 0.061.

Consider XXAXXXXXX [3064.0041], for which the “Normalized average relative binding affinity (ARB), H-2 Dd” value came to 0.0028.

The target in another test is HLA B*1503 (Homo sapiens, UniProt P01889, A329T/A93T/A95T/C349S/D201E/D98Y/E187L/E204Q/K202T/N87E/Q94N/R155S/R180L/S121R/S35A/V306I/V36M/Y140S/Y91S). The test is described as follows: biochemical. Type of test: binding.
Details: not given
Regarding XVXXXXXXX [3064.0038], the “Normalized average relative binding affinity (ARB), HLA B*1503” value stood at 0.017.

As for XWXXXXXXX [3064.0039], the “Normalized average relative binding affinity (ARB), HLA B*1503” value was found to be 0.0038.

In the case of XXAXXXXXX [3064.0041], the “Normalized average relative binding affinity (ARB), HLA B*1503” value turned out to be 0.29.

The target in a further test is HLA B*2705 (Homo sapiens, UniProt P01889, D138H/D201E/E176V/E204Q/G107R/H137Y/K202T/N104T/N87E/Q56L/Q94K/R106L/R155S/R180L/S101D/S121N/S48T/Y140D/Y33H/Y91C).
Experiment: not given
The format is binding. The conditions noted are these: positional scanning combinatorial 9-mer library; normalized to 1.0 for the best residue at each position.
As for XVXXXXXXX [3064.0038], the “Normalized average relative binding affinity (ARB), HLA B*2705” value is given as 0.0016.

XWXXXXXXX [3064.0039]: the “Normalized average relative binding affinity (ARB), HLA B*2705” value was determined as 0.0022.

On to XXAXXXXXX [3064.0041], for which the “Normalized average relative binding affinity (ARB), HLA B*2705” value is on record as 0.21.

Another test addresses HLA A*0201 (Homo sapiens, UniProt P04439, D140Y/D185E/D98H/E176V/E277Q/G131W/G231S/I119V/I121R/I166T/I218V/L300P/L318F/N151K/N90K/P208A/P217A/Q86G/Q94H/R138H/R169H/T345S).
Experiment: not given
The following applies: positional scanning combinatorial 9-mer library; normalized to 1.0 for the best residue at each position.
On to XVXXXXXXX [3064.0038], for which the “Normalized average relative binding affinity (ARB), HLA A*0201” value is 0.098.

For XWXXXXXXX [3064.0039], the “Normalized average relative binding affinity (ARB), HLA A*0201” value turned out to be 0.0024.

As to XXAXXXXXX [3064.0041], the “Normalized average relative binding affinity (ARB), HLA A*0201” value came out at 0.43.

For a further test, the target named is HLA B*5301 (Homo sapiens, UniProt P01889, A329T/A93T/A95T/C349S/D201E/D98Y/E176V/E187L/E204Q/E69T/G107R/I218V/K202T/L105A/L119I/N104I/Q94N/R106L/R155S/R180L/S101N/S121R/S35A/S48A/T118I/V127L/V306I/V36M/Y140S/Y91F).
Experiment: not given
Details: not given
Type of test: binding.
On to XVXXXXXXX [3064.0038], for which the “Normalized average relative binding affinity (ARB), HLA B*5301” value was 0.10.

Consider XWXXXXXXX [3064.0039], for which the “Normalized average relative binding affinity (ARB), HLA B*5301” value was found to be 0.0054.

Take XXAXXXXXX [3064.0041]: the “Normalized average relative binding affinity (ARB), HLA B*5301” value is listed as 0.0065.

The next test deals with HLA A*3001 (Homo sapiens, UniProt P04439, D140H/D185E/E176W/F33S/G80R/H175R/K168Q/R138E/R41S). As to the kind of experiment: biochemical. Type of test: binding.
Details: not given
Consider XVXXXXXXX [3064.0038], for which the “Normalized average relative binding affinity (ARB), HLA A*3001” value is recorded as 1.0.

Take XWXXXXXXX [3064.0039]: the “Normalized average relative binding affinity (ARB), HLA A*3001” value turned out to be 0.26.

With XXAXXXXXX [3064.0041], the “Normalized average relative binding affinity (ARB), HLA A*3001” value was 0.0077.

A further test concerns the target HLA B*3501 (Homo sapiens, UniProt P01889, A329T/A93T/A95T/C349S/D201E/D98Y/E176V/E187L/E204Q/E69T/I218V/K202T/L119I/Q94N/R155S/R180L/S121R/S35A/S48A/T118I/V127L/V306I/V36M/Y140S/Y91F).
Experiment: not given
The format is binding.
Details: not given
Consider XVXXXXXXX [3064.0038], for which the “Normalized average relative binding affinity (ARB), HLA B*3501” value is recorded as 0.062.

For the sequence XWXXXXXXX [3064.0039], the “Normalized average relative binding affinity (ARB), HLA B*3501” value is reported as 0.015.

As to XXAXXXXXX [3064.0041], the “Normalized average relative binding affinity (ARB), HLA B*3501” value is given as 0.19.

A further test deals with HLA B*1501 (Homo sapiens, UniProt P01889, A329T/A93T/A95T/C349S/D201E/D98Y/E187L/E204Q/E69M/E70A/K202T/N87E/Q94N/R155S/R180W/S121R/S35A/S48A/V306I/V36M/Y140S/Y91S). The test is described as follows: biochemical. Type of test: binding.
Details: not given
In the case of XVXXXXXXX [3064.0038], the “Normalized average relative binding affinity (ARB), HLA B*1501” value came to 0.39.

Take XWXXXXXXX [3064.0039]: the “Normalized average relative binding affinity (ARB), HLA B*1501” value is 0.027.

For the sequence XXAXXXXXX [3064.0041], the “Normalized average relative binding affinity (ARB), HLA B*1501” value is 0.23.

Another test has as its target H-2 D^b (Mus musculus, UniProt P01899).
Experiment: not given
Details: not given
Type of test: binding.
Consider XVXXXXXXX [3064.0038], for which the “Normalized average relative binding affinity (ARB), H-2 Db” value is listed as 0.20.

Consider XWXXXXXXX [3064.0039], for which the “Normalized average relative binding affinity (ARB), H-2 Db” value is listed as 0.10.

With XXAXXXXXX [3064.0041], the “Normalized average relative binding affinity (ARB), H-2 Db” value was 0.022.

In another test the target is HLA B*5801 (Homo sapiens, UniProt P01889, A329T/C349S/D201E/D98Y/E176V/E187L/E204Q/E69T/G107R/I218V/I90N/K202T/L105A/L119I/N104I/N87E/Q89R/Q94S/R106L/R155S/R180L/R86G/S101N/S121R/S35A/S48A/T118I/V127L/V306I/V36M/Y140S/Y91M).
Experiment: not given
Details: not given
The format is binding.
As to XVXXXXXXX [3064.0038], the “Normalized average relative binding affinity (ARB), HLA B*5801” value is reported as 0.14.

For XWXXXXXXX [3064.0039], the “Normalized average relative binding affinity (ARB), HLA B*5801” value is 0.0033.

As to XXAXXXXXX [3064.0041], the “Normalized average relative binding affinity (ARB), HLA B*5801” value is 0.32.
